# Laboratory results published in patent US8926998B2, “Polycarbonates bearing pendant primary amines for medical applications” (International Business Machines Corporation, priority 2012, dated 2015).
# Test system: S. aureus
# Test: Minimal inhibitory concentration (MIC), broth microdilution
# Type: cell-based, Staphylococcus aureus
# Conditions: free drug
# Protocol: Bacteria (S. aureus, S. epidermis and E. coli) and Yeast (C. albicans) obtained from ATCC were reconstituted from its lyophilized form according to the manufacturer's protocol. Bacterial samples were cultured in tryptic soy broth (T-SB) or Mueller Hinton broth (M-HB) solution at 37° C., and yeast cells were cultured in YMB at room temperature under constant shaking of 100 rpm. The MICs of the polymers were measured using the broth microdilution method. Briefly, 100 microliters of the respect broth medium containing a polymer at various concentrations (15.6, 31.3, 62.5, 125, 250, 500, 1000, 2000 mg/L) was placed into each well of a 96-well tissue culture plate. An equal volume of microbial suspension (3×10^5 CFU/mL) was added into each well. Prior to mixing, the microbial sample was first inoculated overnight to enter its log growth phase. The concentration of microbial solution was adjusted to give an initial optical density (O.D.) reading of approximately 0.07 at 600 nm wavelength on a microplate reader (TECAN, Switzerland), which corresponds to the concentration of Mc Farland 1 solution (3×10^8 CFU/mL), the microbial solution was further diluted by 1000 times to achieve an initial loading of 3×10^5 CFU/mL. The bacterial samples were kept in an incubator at 37° C. for 18 hours, while the Yeast samples were kept at room temperature for 42 hours under constant shaking of 100 rpm. […]
smiles,measurement,value
"CC1(C)S[C@@H]2[C@H](NC(=O)Cc3ccccc3)C(=O)N2[C@H]1C(=O)O [PenG, Penicillin G]",MIC S. aureus,about 0.01 mg/L
